Results: the Deep4Chem optical property database
Values belong to the compound of their own block, whether it stands above or below them.

Assay: solvent given as SMILES
[1] = in O=P(c1ccccc1)(c1ccccc1)c1ccc2oc3ccc(P(=O)(c4ccccc4)c4ccccc4)cc3c2c1

SMILES: O=P1(c2ccccc2)C(c2cc(C(F)(F)F)cc(C(F)(F)F)c2)=Cc2c3ccc4cccc5ccc(c6cc(-c7ccccc7)n1c26)c3c45 (centres undefined)
fluorescence lifetime (in C1CCCCC1): 1.9 ns | fluorescence lifetime (in C1CCOC1): 3.1 ns | fluorescence lifetime (in C1COCCO1): 2.6 ns | fluorescence lifetime (in CC#N): 3.7 ns | fluorescence lifetime (in CC(C)=O): 3.6 ns | fluorescence lifetime (in CO): 3.8 ns | fluorescence lifetime (in Cc1ccccc1): 2.5 ns | fluorescence lifetime (in ClC(Cl)Cl): 2.4 ns | fluorescence lifetime (in ClCCl): 2.9 ns

SMILES: C[Si]1(C)c2cc(-c3ccc(N(c4ccccc4)c4ccccc4)cc3)ccc2C=Cc2ccc(-c3ccc(N(c4ccccc4)c4ccccc4)cc3)cc21
fluorescence lifetime (in ClCCl): 2.1 ns

SMILES: c1csc(-c2ccc(-c3ccc(-c4cccs4)s3)s2)c1
fluorescence lifetime (in CCC(C)C): 0.52 ns | fluorescence lifetime (in ClCCl): 0.44 ns

SMILES: NS(=O)(=O)c1ccc(N2N=C(c3ccc(O)cc3)CC2c2ccc([N+](=O)[O-])cc2)cc1 (centres undefined)
fluorescence lifetime (in C1CCOC1): 2.19 ns | fluorescence lifetime (in C1COCCO1): 2.06 ns | fluorescence lifetime (in CC#N): 2.21 ns | fluorescence lifetime (in CC(C)O): 1.42 ns | fluorescence lifetime (in CCO): 1.31 ns | fluorescence lifetime (in CCOC(C)=O): 2.37 ns | fluorescence lifetime (in CN(C)C=O): 2.51 ns | fluorescence lifetime (in CO): 1.4 ns | fluorescence lifetime (in CS(C)=O): 2.43 ns | fluorescence lifetime (in O): 2.94 ns

SMILES: Cc1ccc2c(c1)C(c1ccccc1)(c1ccccc1)c1cc(C)ccc1N2c1cc(C(C)C)c(B2c3ccccc3Sc3ccccc32)c(C(C)C)c1
fluorescence lifetime (in Cc1ccccc1): 47 ns | fluorescence lifetime [1]: 21 ns

SMILES: CCCCn1c(-c2ccc(-c3nnc(-c4ccccc4)o3)cc2)nc2c3ccccc3c3ccccc3c21
fluorescence lifetime (in ClCCl): 1.84 ns

SMILES: c1ccc(-c2nc(-c3ccc(N4c5ccccc5C(c5ccccc5)(c5ccccc5)c5ccccc54)cc3)cc(-c3ccc(N4c5ccccc5C(c5ccccc5)(c5ccccc5)c5ccccc54)cc3)n2)cc1
fluorescence lifetime [1]: 11 ns

SMILES: CCC1=C(C)C2=C(C)c3c(I)c(I)c(I)n3[B-](F)(F)[N+]2=C1C
fluorescence lifetime (in C1CCCCC1): 0.331 ns | fluorescence lifetime (in CC(C)=O): 0.206 ns | fluorescence lifetime (in CCO): 0.221 ns | fluorescence lifetime (in CCOC(C)=O): 0.241 ns | fluorescence lifetime (in CO): 0.214 ns | fluorescence lifetime (in OCC(F)(F)F): 0.21 ns

SMILES: CN(C)c1ccc(C2=Cc3cc(Cl)nc[n+]3[B-](F)(F)O2)cc1
fluorescence lifetime (in C1CCOC1): 2.6 ns | fluorescence lifetime (in CC#N): 0.3 ns | fluorescence lifetime (in CCCCCC): 1.9 ns | fluorescence lifetime (in Cc1ccccc1): 2.3 ns | fluorescence lifetime (in ClC(Cl)Cl): 2.5 ns | fluorescence lifetime (in ClCCl): 2.8 ns

SMILES: c1ccc(-c2nc(-c3ccccc3)nc(-c3ccc(-n4c5ccc(-n6c7ccccc7c7ccccc76)cc5c5cc(-n6c7ccccc7c7ccccc76)ccc54)cc3)n2)cc1
fluorescence lifetime (in Cc1ccccc1): 6 ns

SMILES: CN(C)c1ccc(/C=C2\CC/C(=C\c3ccc(N(C)C)cc3)C2=O)cc1
fluorescence lifetime (in C1CCOC1): 0.6 ns | fluorescence lifetime (in C1COCCO1): 0.5 ns | fluorescence lifetime (in CC#N): 0.54 ns | fluorescence lifetime (in CC(C)=O): 0.74 ns | fluorescence lifetime (in CC(C)O): 0.68 ns | fluorescence lifetime (in CCO): 0.34 ns | fluorescence lifetime (in CCOC(C)=O): 0.59 ns | fluorescence lifetime (in CN(C)C=O): 0.92 ns | fluorescence lifetime (in CO): 0.29 ns | fluorescence lifetime (in CS(C)=O): 0.85 ns | fluorescence lifetime (in Cc1ccccc1): 0.48 ns | fluorescence lifetime (in ClC(Cl)(Cl)Cl): 0.37 ns | fluorescence lifetime (in ClC(Cl)Cl): 0.57 ns | fluorescence lifetime (in ClCCl): 0.77 ns | fluorescence lifetime (in S=C=S): 0.51 ns

SMILES: O=[N+]([O-])c1ccc([N+]2=Cc3ccc4ccccc4c3O[B-]2(F)F)cc1
fluorescence lifetime (in ClCCl): 7.6 ns

SMILES: CCCN1/C(=C\c2c(-c3ccc(N(C)C)cc3)c(=O)c2=O)C=Cc2ccccc21
fluorescence lifetime (in C1CCCCC1): 1.01 ns | fluorescence lifetime (in Cc1ccccc1): 2.46 ns | fluorescence lifetime (in ClCCl): 0.09 ns

SMILES: CC(C)(C)c1ccc2c(c1)c1cc(C(C)(C)C)ccc1n2-c1cccc(-n2c3ccc(C(C)(C)C)cc3c3cc(C(C)(C)C)ccc32)c1C#N
fluorescence lifetime (in Cc1ccccc1): 5 ns | fluorescence lifetime (in O=P(c1ccccc1)(c1ccccc1)c1ccccc1Oc1ccccc1P(=O)(c1ccccc1)c1ccccc1): 6.8 ns

SMILES: CCOC(=O)CN1C(=O)C2=C(c3ccccc3)N(CC(=O)OCC)C(=O)C2=C1c1ccccc1
fluorescence lifetime (in CC#N): 6.7 ns | fluorescence lifetime (in CS(C)=O): 7.34 ns | fluorescence lifetime (in Cc1ccccc1): 5.93 ns

More lines, now with the values ahead:

fluorescence lifetime (in ClCCl): 0.834 ns
SMILES: Cc1nc(-c2cc(N)ccc2O)n2c1CCCC2

fluorescence lifetime (in C1CCCCC1): 0.1 ns
SMILES: CN(C)c1ccc2nc(-c3ccccc3)sc2c1Cl

fluorescence lifetime (in ClCCl): 1 ns
SMILES: COCCOCCOCCOCC(COCCOCCOCCOC)Oc1cc(/C=C/c2ccc(/C=C(\C#N)C(=O)c3ccccc3)cc2)c(OC(COCCOCCOCCOC)COCCOCCOCCOC)cc1/C=C/c1ccc(/C=C(\C#N)C(=O)c2ccccc2)cc1

fluorescence lifetime (in CC#N): 2.13 ns
SMILES: CN(C)c1ccc(/C=C/c2nc3c4ccccc4c4ccccc4c3o2)cc1

fluorescence lifetime (in CC#N): 0.66 ns
SMILES: Cc1ccc(-c2ccc(/C=C/c3ccc(Br)n3C)cn2)nc1

fluorescence lifetime (in O): 4.4 ns
SMILES: CC[n+]1nc2cc3c4c(c2c2cc(F)ccc21)CCCN4CCC3

fluorescence lifetime (in CC#N): 4.07 ns
SMILES: COc1ccc(-c2csc(/C(C#N)=C/c3c(Cl)cccc3Cl)n2)cc1

fluorescence lifetime (in CO): 1.63 ns
SMILES: CCN(CC)c1ccc(/C=N/Nc2ccc(C#N)cc2)c(O)c1

fluorescence lifetime (in CS(C)=O): 0.05 ns
SMILES: Cn1c(=O)c(/N=N/c2ccc(S(=O)(=O)O)c3ccccc23)c(O)c2ccccc21

fluorescence lifetime (in C1CCOC1): 1.72 ns
SMILES: C(=C\c1cc2ccccc2c2ccccc12)/c1cc2ccccc2c2ccccc12

fluorescence lifetime (in ClCCl): 0.29 ns
SMILES: CC(C)(C)c1ccc2c(c1)c1cc(C(C)(C)C)ccc1n2-c1ccc(C#Cc2ccc3c4ccc(C#Cc5ccc(C=C(C#N)C#N)cc5)cc4n(-c4ccc(C(F)(F)F)cc4)c3c2)cc1
